Calls of active or inactive are those of the source. No cut-off for these calls is given here.
Assays:
Alpha-glucosidase [1] = biological target: T1, Alpha-glucosidase (Saccharomyces cerevisiae S288c, UniProt P53341+P38158+P07265); test: Inhibition of Saccharomyces cerevisiae Alpha-glucosidase using p-NPG as substrate and measured after 10 mins; type: protein assay
Alpha-glucosidase [2] = biological target: T1, Alpha-glucosidase; test: Noncompetitive inhibition of Saccharomyces cerevisiae Alpha-glucosidase assessed as decrease in Vmax with constant Km using p-NPG as substrate by Lineweaver-Burk plot analysis; type: protein assay
Mus musculus [3] = test: Anti-diabetic activity against streptozocin-induced C57/6J mouse diabetes model assessed as decrease in fasting blood glucose at 100 mg/kg/day, po and measured from 2 to 4 weeks; type: functional, organism-based; details: time 2-4 weeks
Mus musculus [4] = test: Antihyperlipidemic activity against streptozocin-induced C57/6J mouse assessed as decrease in triglyceride level at 100 mg/kg/day, po administered for 4 weeks by automatic biochemical analyzer; type: functional, organism-based
Mus musculus [5] = test: Antihyperlipidemic activity against streptozocin-induced C57/6J mouse assessed as decrease in total cholesterol level at 100 mg/kg/day, po administered for 4 weeks by automatic biochemical analyzer; type: functional, organism-based
Mus musculus [6] = test: Anti-diabetic activity against streptozocin-induced C57/6J mouse diabetes model assessed as decrease in blood glucose level at 100 mg/kg/day, po administered for 25 days in presence of sucrose by OGTT assay; type: functional, organism-based; details: time 25.0 day
Mus musculus [7] = test: Anti-diabetic activity against streptozocin-induced C57/6J mouse diabetes model assessed as change in fasting blood glucose at 100 mg/kg/day, po and measured after 1 week; type: functional, organism-based; details: time 1.0 weeks
Mus musculus [8] = test: Anti-diabetic activity against streptozocin-induced C57/6J mouse diabetes model assessed as decrease in fasting blood glucose at 50 mg/kg/day, po and measured from 2 to 4 weeks; type: functional, organism-based; details: time 2-4 weeks
Mus musculus [9] = test: Antihyperlipidemic activity against streptozocin-induced C57/6J mouse assessed as decrease in triglyceride level at 50 mg/kg/day, po administered for 4 weeks by automatic biochemical analyzer; type: functional, organism-based
Mus musculus [10] = test: Anti-diabetic activity against streptozocin-induced C57/6J mouse diabetes model assessed as decrease in blood glucose level at 50 mg/kg/day, po administered for 25 days in presence of sucrose by OGTT assay; type: functional, organism-based; details: time 25.0 day
L02 = test: Cytotoxicity against human L02 cells upto 32 uM; type: toxicity, cell-based; details: l02, 32 µM
Mus musculus [11] = test: Anti-diabetic activity against streptozocin-induced C57/6J mouse diabetes model assessed as change in fasting blood glucose at 50 mg/kg/day, po and measured after 1 week; type: functional, organism-based; details: time 1.0 weeks
Mus musculus [12] = test: Antihyperlipidemic activity against streptozocin-induced C57/6J mouse assessed as decrease in total cholesterol level at 50 mg/kg/day, po administered for 4 weeks by automatic biochemical analyzer; type: functional, organism-based

IC50 (Alpha-glucosidase [1]) | Compound | other results
8.47 µM | Brc1cccc(CSc2nnc(-c3cc4c([nH]c5ccccc54)c(-c4ccccc4)n3)o2)c1 | 
10.36 µM | N#Cc1ccc(CSc2nnc(-c3cc4c([nH]c5ccccc54)c(-c4ccccc4)n3)o2)cc1 | 
8.48 µM | FC(F)(F)c1ccc(CSc2nnc(-c3cc4c([nH]c5ccccc54)c(-c4ccccc4)n3)o2)cc1 | 
6.44 µM | FC(F)(F)Oc1ccc(CSc2nnc(-c3cc4c([nH]c5ccccc54)c(-c4ccccc4)n3)o2)cc1 | 
5.31 µM | Clc1ccc(CSc2nnc(-c3cc4c([nH]c5ccccc54)c(-c4ccccc4)n3)o2)cc1 | 
4.6 µM | COC(=O)c1ccc(CSc2nnc(-c3cc4c([nH]c5ccccc54)c(-c4ccccc4)n3)o2)cc1 | 
12.25 µM | FC(F)(F)c1cccc(CSc2nnc(-c3cc4c([nH]c5ccccc54)c(-c4ccccc4)n3)o2)c1 | 
9.12 µM | Fc1ccc(CSc2nnc(-c3cc4c([nH]c5ccccc54)c(-c4ccccc4)n3)o2)cc1F | 
9.57 µM | O=[N+]([O-])c1ccccc1CSc1nnc(-c2cc3c([nH]c4ccccc43)c(-c3ccccc3)n2)o1 | 
5.46 µM | Clc1ccccc1CSc1nnc(-c2cc3c([nH]c4ccccc43)c(-c3ccccc3)n2)o1 | 
4.32 µM | c1ccc(-c2ccc(CSc3nnc(-c4cc5c([nH]c6ccccc65)c(-c5ccccc5)n4)o3)cc2)cc1 | 
3.07 µM | c1ccc(-c2ccccc2CSc2nnc(-c3cc4c([nH]c5ccccc54)c(-c4ccccc4)n3)o2)cc1 | Activity (Mus musculus [8]): Active; Ki (Alpha-glucosidase [2]): 1.22 µM; Activity (Mus musculus [9]): Active; Activity (Mus musculus [10]): Active; Activity (L02): Non-Toxic; Activity (Mus musculus [11]): inactive; Activity (Mus musculus [12]): Active
10.57 µM | N#Cc1ccccc1CSc1nnc(-c2cc3c([nH]c4ccccc43)c(-c3ccccc3)n2)o1 | 
5.58 µM | COC(=O)c1ccccc1CSc1nnc(-c2cc3c([nH]c4ccccc43)c(-c3ccccc3)n2)o1 | 
10.59 µM | FC(F)(F)c1ccccc1CSc1nnc(-c2cc3c([nH]c4ccccc43)c(-c3ccccc3)n2)o1 | 
15.41 µM | Fc1cccc(CSc2nnc(-c3cc4c([nH]c5ccccc54)c(-c4ccccc4)n3)o2)c1 | 

The remaining lines, values behind:

Compound | IC50 (Alpha-glucosidase [1]) | other results
Brc1ccccc1CSc1nnc(-c2cc3c([nH]c4ccccc43)c(-c3ccccc3)n2)o1 | 6.97 µM | 
Clc1cccc(CSc2nnc(-c3cc4c([nH]c5ccccc54)c(-c4ccccc4)n3)o2)c1 | 12.71 µM | 
Cc1cccc(CSc2nnc(-c3cc4c([nH]c5ccccc54)c(-c4ccccc4)n3)o2)c1 | 10.4 µM | 
COC(=O)c1cccc(CSc2nnc(-c3cc4c([nH]c5ccccc54)c(-c4ccccc4)n3)o2)c1 | 4.93 µM | 
N#Cc1cccc(CSc2nnc(-c3cc4c([nH]c5ccccc54)c(-c4ccccc4)n3)o2)c1 | 10.42 µM | 
Cc1ccc(CSc2nnc(-c3cc4c([nH]c5ccccc54)c(-c4ccccc4)n3)o2)cc1 | 11.86 µM | 
Fc1ccccc1CSc1nnc(-c2cc3c([nH]c4ccccc43)c(-c3ccccc3)n2)o1 | 14.75 µM | 
c1ccc(-c2cccc(CSc3nnc(-c4cc5c([nH]c6ccccc65)c(-c5ccccc5)n4)o3)c2)cc1 | 3.39 µM | 
Clc1ccc(CSc2nnc(-c3cc4c([nH]c5ccccc54)c(-c4ccccc4)n3)o2)cc1Cl | 9.66 µM | 
c1ccc(CSc2nnc(-c3cc4c([nH]c5ccccc54)c(-c4ccccc4)n3)o2)cc1 | 15.49 µM | Ki (Alpha-glucosidase [2]): 1.81 µM
CC(C)(C)c1ccc(CSc2nnc(-c3cc4c([nH]c5ccccc54)c(-c4ccccc4)n3)o2)cc1 | 4.95 µM | 
Fc1ccc(CSc2nnc(-c3cc4c([nH]c5ccccc54)c(-c4ccccc4)n3)o2)cc1 | 14.73 µM | 
FC(F)(F)Oc1cccc(CSc2nnc(-c3cc4c([nH]c5ccccc54)c(-c4ccccc4)n3)o2)c1 | 10.93 µM | 
Brc1ccc(CSc2nnc(-c3cc4c([nH]c5ccccc54)c(-c4ccccc4)n3)o2)cc1 | 5.42 µM | 
C[C@H]1O[C@H](O[C@H]2[C@H](O)[C@@H](O)[C@@H](O[C@H]3[C@H](O)[C@@H](O)C(O)O[C@@H]3CO)O[C@@H]2CO)[C@H](O)[C@@H](O)[C@@H]1N[C@H]1C=C(CO)[C@@H](O)[C@H](O)[C@H]1O (some centres undefined) |  | Activity (Mus musculus [3]): Active; Activity (Mus musculus [4]): Active; Activity (Mus musculus [5]): Active; Activity (Mus musculus [6]): Active; Activity (Mus musculus [7]): inactive
O=[N+]([O-])c1cccc(CSc2nnc(-c3cc4c([nH]c5ccccc54)c(-c4ccccc4)n3)o2)c1 | 5.76 µM | 
O=[N+]([O-])c1ccc(CSc2nnc(-c3cc4c([nH]c5ccccc54)c(-c4ccccc4)n3)o2)cc1 | 3.1 µM | Ki (Alpha-glucosidase [2]): 2.86 µM
FC(F)(F)Oc1ccccc1CSc1nnc(-c2cc3c([nH]c4ccccc43)c(-c3ccccc3)n2)o1 | 10.64 µM | 
CS(=O)(=O)c1ccc(CSc2nnc(-c3cc4c([nH]c5ccccc54)c(-c4ccccc4)n3)o2)cc1 | 6.15 µM | 
Cc1ccccc1CSc1nnc(-c2cc3c([nH]c4ccccc43)c(-c3ccccc3)n2)o1 | 3.33 µM | 

— ChEMBL document CHEMBL5634104, “Identification of 1,3,4-oxadiazolyl-containing β-carboline derivatives as novel α-glucosidase inhibitors with antidiabetic activity” (Eur J Med Chem, 2023)
